Measured values as given in US20180243327A1, “USE OF SECOISOLARICIRESINOL DIGLUCOSIDES (SDGs) AND RELATED COMPOUNDS FOR PROTECTION AGAINST RADIATION DAMAGE” (THE TRUSTEES OF THE UNIVERSITY OF PENNSYLVANIA, priority 2015, published 2018).

Legend:
[1] = system: human precision-cut lung slices (huPCLS); test: SA-β-Gal staining of huPCLS post proton radiation; format: cell-based; conditions: 24 hour post proton radiation, 50 Mm LGM2605 given 4 hours prior
Description: (§1) FIG. 2: Novel Ex vivo model of human lung: human precision-cut lung slices for radiation exposure. Human Precision-cut slice preparation: Slices (huPCLS) were obtained by inflating the donor human lung with low melting temperature agarose, sectioning, coring, and slicing, as shown above. The 350 μm thick slices were washed three times with culture medium to rid airways of agarose and are viable at 37 °C, up to a week.
FIG. 5: LGM2605 reduces senescent-like phenotype of huPCLS. […] A) SA-β-Gal staining of huPCLS at 24 hour post proton radiation. B) Quantification of the β-gal positive stained cells. Percentage change of the β-gal positive cells of the irradiated huPCLS compared to the nonirradiated huPCLS.
(§2) Methods: Since the testing of our hypothesis in human tissues is critical and cannot be mechanistically pursued in patients, we pursued a novel approach, using an ex vivo model of human normal lung precision-cut sections (huPCLS), used for the first time to our knowledge, in radiation studies. The huPCLS consist of all relevant cell types of the respiratory tract, situated in their microanatomical environment, validated for pharmacological testing. […] Tissues were evaluated 30 min and 24 hours post irradiation for gene expression, protein level changes, and betagalactosidase activity, relevant to inflammation, oxidative stress and senescence.

[2] = Antioxidant and free radical scavenging characteristics
Excerpt: FIG. 1. Bioactive polyphenolic plant lignans in flaxseed and radiation Damage. Secoisolariciresinol diglucoside (SDG) is the major lignan phenolic in flaxseed. Due to complex SDG extraction, purification and enrichment methods from natural resources, SDG was chemically synthesized. […] (B) The structure of SDG.

[3] = system: human precision-cut lung slices (huPCLS); test: Senescence marker gene levels (qPCR) in huPCLS after 4 Gy proton radiation; format: cell-based; conditions: 50 Mm LGM2605 given 4 hours prior, 30 min and 24 hours post irradiation
Description: as §1
(§3) FIG. 6: LGM2605 decreases Proton Radiation-induced Senescence Markers, both at the Gene and Protein Level, in huPCLS. […] Transcript levels of tested genes are normalized to 18S rRNA.*p<0.05.
(§4) Methods: Since the testing of our hypothesis in human tissues is critical and cannot be mechanistically pursued in patients, we pursued a novel approach, using an ex vivo model of human normal lung precision-cut sections (huPCLS), used for the first time to our knowledge, in radiation studies. The huPCLS consist of all relevant cell types of the respiratory tract, situated in their microanatomical environment, validated for pharmacological testing. Human lung sections were exposed to 4 Gy proton radiation in the presence of 0 and 50 Mm LGM2605, given 4 hours prior to exposure. Tissues were evaluated 30 min and 24 hours post irradiation for gene expression, protein level changes, and betagalactosidase activity, relevant to inflammation, oxidative stress and senescence.

[4] = system: human precision-cut lung slices (huPCLS); test: Antioxidant gene levels (qPCR) in huPCLS after 4 Gy proton radiation; format: cell-based; conditions: 50 Mm LGM2605 given 4 hours prior, 30 min and 24 hours post irradiation, normalized to 18S rRNA
Description: as §1
FIG. 4: qPCR analysis of (A) HMOX-1 and (B) NQO1 in huPCLS after 30 min and 24 hours post 4 Gy proton radiation with or without SDG pretreatment for 4 hours. Data are represented as average fold change from non-irradiated control±SEM. Transcript levels of tested genes are normalized to 18S rRNA. *p<0.05.
as §2

[5] = Activity of synthetic SDG compared with natural SDG; conditions: synthetic vs natural counterpart
Excerpt: Using a mouse model of proton radiation exposure, we have identified dose-dependent pathophysiological changes in the lung. […] Thus, we further hypothesize that LGM2605 will be effective against proton-induced pulmonary damage, such as inflammation, oxidative stress and senescence.

[6] = system: human precision-cut lung slices (huPCLS); test: Proinflammatory cytokine gene levels (qPCR) in huPCLS after 4 Gy proton radiation; format: cell-based; conditions: 50 Mm LGM2605 given 4 hours prior, 30 min and 24 hours post irradiation, normalized to 18S rRNA
Description: as §1
FIG. 3: Evaluation of inflammatory markers, in huPCLS, at 30 min and 24 hours post 4 Gy proton radiation with or without SDG pre-treatment for 4 hours. Transcript levels of (A) IL1B, (B) IL6 and (C) TNF-alpha are normalized to 18S rRNA. *p<0.05.
as §4

[7] = system: human precision-cut lung slices (huPCLS); test: Senescence marker protein levels (Western Blot of whole tissue lysates) in huPCLS treated with proton; format: cell-based; conditions: proton radiation, 50 Mm LGM2605 given 4 hours prior
Description: as §1, §3, §4

SMILES: COc1cc(C[C@@H](CO[C@@H]2O[C@H](CO)[C@@H](O)[C@H](O)[C@H]2O)[C@H](CO[C@@H]2O[C@H](CO)[C@@H](O)[C@H](O)[C@H]2O)Cc2ccc(O)c(OC)c2)ccc1O [LGM2605, secoisolariciresinol diglucoside]
- senescent-like phenotype (SA-β-galactosidase positive staining) [1]: protects huPCLS from a senescent-like phenotype
- antioxidant and free radical scavenging characteristics [2]: strong antioxidant and free radical, scavenging characteristics
- CDKN2A senescent marker gene level [3]: reduces
- TP53 senescent marker gene level [3]: reduces
- antioxidant HO (HMOX-1) gene level [4]: increase
- antioxidant NQO1 gene level [4]: increase
- activity relative to natural SDG [5]: equipotent activity with its natural counterpart
- IL-1β (IL1B) inflammatory marker gene level [6]: reduction
- IL-6 (IL6) inflammatory marker gene level [6]: reduction
- TNFα inflammatory marker gene level [6]: reduction
- p16 senescent marker protein level [7]: reduces
- p53 senescent marker protein level [7]: reduces
